In US10189843B2, “Fused pyrazole derivative having autotaxin inhibitory activity” (The University of Tokyo, priority 2014, dated 2019):

biological target: T1, Human autotaxin enzyme (Homo sapiens, UniProt Q13822); assay: Evaluation of autotaxin inhibitor, Method C (18:0 Lyso PC substrate, choline assay, Resorufin fluorescence); assay type: biochemical; details: Method C (Test Example 3), read-out: Inhibitory activity (enzyme inhibitory activity, IC50)
T1 construct: purchased R&D System
Outline: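 Recombinant human autotaxin with compound and 200 μM 18:0 Lyso PC (stock) in Tris-HCl pH 7.5, NaCl, MgCl2, Triton X-100, 2 h RT. Released choline detected via choline oxidase/peroxidase/Amplex-type reagent, 20 min, resorufin fluorescence 531/598 nm; % inhibition vs no-compound and no-enzyme controls, concentration-response curve.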

SMILES | IC50 [nM]
CCCCC1CN(CCNC(=O)OC(C)(C)C)C(=O)c2cc(-c3ccc(Cl)cc3)nn21 (stereo not shown) [Compound I-0265] | 10 to 100
CCCCC1CN(CC2CNC(=O)O2)C(=O)c2cc(-c3ccc(Cl)cc3)nn21 (stereo not shown) [Compound I-0266] | 10 to 100
CCCCC1CN(CCn2cccc2)C(=O)c2cc(-c3ccc(Cl)cc3)nn21 (stereo not shown) [Compound I-0267] | 100 to 1000
CCCCC1CN(CC2CCCO2)C(=O)c2cc(-c3ccc(Cl)cc3)nn21 (stereo not shown) [Compound I-0268] | 10 to 100
CCCCC1CN(CC2CCOC2)C(=O)c2cc(-c3ccc(Cl)cc3)nn21 (stereo not shown) [Compound I-0269] | 10 to 100
CCCCC1CN(CCOc2ccccc2)C(=O)c2cc(-c3ccc(Cl)cc3)nn21 (stereo not shown) [Compound I-0270] | 100 to 1000
CCCCC1CN(CCOC)C(=O)c2cc(-c3ccc(Cl)cc3)nn21 (stereo not shown) [Compound I-0271] | 100 to 1000
CCCCC1CN(CC2(c3ccc(OC)cc3)CC2)C(=O)c2cc(-c3ccc(Cl)cc3)nn21 (stereo not shown) [Compound I-0272] | ≥ 1000
CCCCC1CN(CCN2CCOCC2)C(=O)c2cc(-c3ccc(Cl)cc3)nn21 (stereo not shown) [Compound I-0273] | 100 to 1000
CCCCC1CN(C2COC2)C(=O)c2cc(-c3ccc(Cl)cc3)nn21 (stereo not shown) [Compound I-0274] | 100 to 1000
CCCCC1CN(CC2CN(C(C)C)C(=O)O2)C(=O)c2cc(-c3ccc(Cl)cc3)nn21 (stereo not shown) [Compound I-0275] | 10 to 100
CCCCC1CN(Cc2ccc(C#N)cc2)C(=O)c2cc(C3=CCC(C(F)(F)F)CC3)nn21 (stereo not shown) [Compound I-0276] | 100 to 1000
CCCCC1CN(Cc2ccc(C#N)cc2)C(=O)c2cc(-c3ccc(Cl)cn3)nn21 (stereo not shown) [Compound I-0277] | 100 to 1000
CCCCC1CN(Cc2ccc(C#N)cc2)C(=O)c2cc(-c3ccc(Cl)cc3CNC)nn21 (stereo not shown) [Compound I-0278] | ≥ 1000
CCCCC1CN(CC(=O)N2CCC(C(=O)OC)CC2)C(=O)c2cc(-c3ccc(Cl)cc3)nn21 (stereo not shown) [Compound I-0279] | 10 to 100
CCCCC1CN(Cc2ccc(C#N)cc2)C(=O)c2cc(-c3ccc(Cl)cc3C#N)nn21 (stereo not shown) [Compound I-0280] | 10 to 100
CCCCC1CN(Cc2ccc(C#N)cc2)C(=O)c2cc(-c3ccc(Cl)cc3N)nn21 (stereo not shown) [Compound I-0281] | 100 to 1000
CCCCC1CN(Cc2ccc(C#N)cc2)C(=O)c2cc(-c3ccc(Cl)cc3CN(C)C)nn21 (stereo not shown) [Compound I-0282] | ≥ 1000
CCCCC1CN(CC(=O)OC(C)(C)C)C(=O)c2cc(-c3ccc(Cl)cc3)nn21 (stereo not shown) [Compound I-0283] | 100 to 1000
CCCCC1CN(Cc2ccc(C#N)cc2)C(=O)c2cc(-c3ccc(Cl)cc3COC)nn21 (stereo not shown) [Compound I-0284] | ≥ 1000
CC(=O)Nc1cc(Cl)ccc1-c1cc2n(n1)[C@@H](C)CN(Cc1ccc(C#N)cc1)C2=O [Compound I-0285] | < 10
CCCCC1CN(c2ccc(CC(=O)O)cc2)C(=O)c2cc(-c3ccc(Cl)cc3)nn21 (stereo not shown) [Compound I-0286] | ≥ 1000
CCCCC1CN(c2ccc(CCC(=O)O)cc2)C(=O)c2cc(-c3ccc(Cl)cc3)nn21 (stereo not shown) [Compound I-0287] | ≥ 1000
CCCCC1CN(CN)C(=O)c2cc(-c3ccc(Cl)cc3)nn21 (stereo not shown) [Compound I-0288] | ≥ 1000
CCCCC1CN(CNC(=O)CC#N)C(=O)c2cc(-c3ccc(Cl)cc3)nn21 (stereo not shown) [Compound I-0289] | 10 to 100

SMILES | IC50 [nM]
CCCCC1CN(CNC(=O)CO)C(=O)c2cc(-c3ccc(Cl)cc3)nn21 (stereo not shown) [Compound I-0290] | 100 to 1000
CCCOCC1CN(Cc2ccc(C#N)cc2)C(=O)c2cc(-c3ccc(Cl)cc3)nn21 (stereo not shown) [Compound I-0291] | 10 to 100
CCCCC1CN(C2CCN(CC#N)C2=O)C(=O)c2cc(-c3ccc(Cl)cc3)nn21 (stereo not shown) [Compound I-0292] | 10 to 100
CCCCC1CN(Cc2ccc(C#N)cc2)C(=O)c2cc(-c3ccc(Cl)cc3CC#N)nn21 (stereo not shown) [Compound I-0293] | 100 to 1000
CCCCC1CN(CC(=O)OCC)C(=O)c2cc(-c3ccc(Cl)cc3)nn21 (stereo not shown) [Compound I-0294] | 10 to 100
CCCCCC1CN(CC(=O)N2CCC(C(=O)NC3(C#N)CC3)CC2)C(=O)c2cc(-c3ccc(Cl)cc3)nn21 (stereo not shown) [Compound I-0295] | 10 to 100
C[C@H]1CN(Cc2ccc(C#N)cc2)C(=O)c2cc(-c3ccc(Cl)cc3C=O)nn21 [Compound I-0296] | 100 to 1000
C[C@H]1CN(Cc2ccc(C#N)cc2)C(=O)c2cc(-c3ccc(Cl)cc3CO)nn21 [Compound I-0297] | 100 to 1000
C[C@H]1CN(Cc2ccc(C#N)cc2)C(=O)c2cc(-c3ccc(Cl)cc3C#N)nn21 [Compound I-0298] | 100 to 1000
CCCCC1CN(CC2CN(CC#N)C(=O)O2)C(=O)c2cc(-c3ccc(Cl)cc3)nn21 (stereo not shown) [Compound I-0299] | 10 to 100
C[C@H]1CN(Cc2ccc(C#N)cc2)C(=O)c2cc(-c3ccc(Cl)cc3CC#N)nn21 [Compound I-0300] | ≥ 1000
CCCCC1CN(Cc2ccc(C#N)cc2)C(=O)c2cc(N(C)Cc3ccc(Cl)cc3)nn21 (stereo not shown) [Compound I-0301] | ≥ 1000
CCCCC1CN(Cc2ccc(C#N)cc2)C(=O)c2cc(N3CCC(F)(F)CC3)nn21 (stereo not shown) [Compound I-0302] | 100 to 1000
CCCCC1CN(Cc2ccc(C#N)cc2)C(=O)c2cc(N3CC(c4ccccc4)C3)nn21 (stereo not shown) [Compound I-0303] | ≥ 1000
CCCCC1CN(Cc2ccc(C#N)cc2)C(=O)c2cc(N3CCC(C#N)CC3)nn21 (stereo not shown) [Compound I-0304] | ≥ 1000
CCCCC1CN(Cc2ccc(C#N)cc2)C(=O)c2cc(N3CCC(C(F)(F)F)CC3)nn21 (stereo not shown) [Compound I-0305] | 100 to 1000
CCCCC1CN(Cc2ccc(C#N)cc2)C(=O)c2cc(N3Cc4ccccc4C3)nn21 (stereo not shown) [Compound I-0306] | ≥ 1000
CCCCC1CN(Cc2ccc(C#N)cc2)C(=O)c2cc(N3[C@@H]4CC[C@H]3CC(F)(F)C4)nn21 (stereo partly shown) [Compound I-0307] | ≥ 1000
CCCCC1CN(Cc2ccc(C#N)cc2)C(=O)c2cc(-c3ccc(Cl)cc3NS(C)(=O)=O)nn21 (stereo not shown) [Compound I-0308] | ≥ 1000
CCCCC1CN(Cc2ccc(C#N)cc2)C(=O)c2cc(-c3ccc(Cl)cc3NC(=O)NC)nn21 (stereo not shown) [Compound I-0309] | 100 to 1000
CCCCCC1CN(c2ccc(C(=O)N(C)C)cc2)C(=O)c2cc(-c3ccc(Cl)cc3)nn21 (stereo not shown) [Compound I-0310] | ≥ 1000
O=C(O)c1cccc(CN2CC(COCC(F)(F)F)n3nc(-c4ccc(Cl)cc4)cc3C2=O)c1 (stereo not shown) [Compound I-0311] | < 10
CCCCC[C@@H]1CN(CC(=O)N2CCC(C(=O)O)CC2)C(=O)c2cc(-c3ccc(Cl)cc3)nn21 [Compound I-0312] | 10 to 100
CCCCC[C@@H]1CN(CC(=O)N2CCC(C(=O)O)CC2)C(=O)c2cc(-c3ccc(Cl)cc3)nn21 [Compound I-0313] | < 10
N#CC1(NC(=O)CN2CC(COCC(F)(F)F)n3nc(-c4ccc(Cl)cc4)cc3C2=O)CC1 (stereo not shown) [Compound I-0314] | 100 to 1000

SMILES | IC50 [nM]
CC(C)(O)CNC(=O)CN1CC(COCC(F)(F)F)n2nc(-c3ccc(Cl)cc3)cc2C1=O (stereo not shown) [Compound I-0315] | 100 to 1000
CC(=O)Nc1cc(Cl)ccc1-c1cc2n(n1)[C@@H](C)CN(C[C@H]1CNC(=O)O1)C2=O [Compound I-0316] | 10 to 100
CC(=O)Nc1cc(Cl)ccc1-c1cc2n(n1)[C@@H](C)CN(C[C@@H]1CNC(=O)O1)C2=O [Compound I-0317] | 100 to 1000
O=C(O)C1CCN(C(=O)CN2CC(COCC(F)(F)F)n3nc(-c4ccc(Cl)cc4)cc3C2=O)CC1 (stereo not shown) [Compound I-0318] | < 10
CCCOCC1CN(CC(=O)N2CCC(C(=O)O)CC2)C(=O)c2cc(-c3ccc(Cl)cc3)nn21 (stereo not shown) [Compound I-0319] | < 10
C[C@H]1CN(Cc2ccc(C#N)cc2)C(=O)c2cc(-c3ccc(Cl)cc3N)nn21 [Compound I-0320] | ≥ 1000
CCCC(=O)Nc1cc(Cl)ccc1-c1cc2n(n1)[C@@H](C)CN(Cc1ccc(C#N)cc1)C2=O [Compound I-0321] | 10 to 100
C[C@H]1CN(Cc2ccc(C#N)cc2)C(=O)c2cc(-c3ccc(Cl)cc3NC(=O)C3CC3)nn21 [Compound I-0322] | 10 to 100
C[C@H]1CN(Cc2ccc(C#N)cc2)C(=O)c2cc(-c3ccc(Cl)cc3NS(C)(=O)=O)nn21 [Compound I-0323] | 100 to 1000
C[C@H]1CN(Cc2ccc(C#N)cc2)C(=O)c2cc(-c3ccc(Cl)cc3Nc3nccs3)nn21 [Compound I-0324] | ≥ 1000
CC(C#N)Nc1cc(Cl)ccc1-c1cc2n(n1)[C@@H](C)CN(Cc1ccc(C#N)cc1)C2=O (stereo partly shown) [Compound I-0325] | ≥ 1000
C[C@H]1CN(Cc2ccc(C#N)cc2)C(=O)c2cc(-c3ccc(Cl)cc3Br)nn21 [Compound I-0326] | ≥ 1000
C[C@H]1CN(Cc2ccc(C#N)cc2)C(=O)c2cc(-c3ccc(Cl)cc3F)nn21 [Compound I-0327] | ≥ 1000
CCNc1cc(Cl)ccc1-c1cc2n(n1)[C@@H](C)CN(Cc1ccc(C#N)cc1)C2=O [Compound I-0328] | 100 to 1000
COCc1cc(Cl)ccc1-c1cc2n(n1)[C@@H](C)CN(Cc1ccc(C#N)cc1)C2=O [Compound I-0329] | ≥ 1000
CC(=O)Nc1cc(Cl)c(F)cc1-c1cc2n(n1)[C@@H](C)CN(Cc1ccc(C#N)cc1)C2=O [Compound I-0330] | < 10
CCCCC1CN(CC(=O)NC(C#N)Cc2ccccc2)C(=O)c2cc(-c3ccc(Cl)cc3)nn21 (stereo not shown) [Compound I-0331] | 100 to 1000
C[C@H]1CN(Cc2ccc(C#N)cc2)C(=O)c2cc(-c3ccc(Cl)cc3NC(=O)CN(C)C)nn21 [Compound I-0332] | 10 to 100
CC(=O)Nc1cc(C(F)(F)F)ccc1-c1cc2n(n1)[C@@H](C)CN(Cc1ccc(C#N)cc1)C2=O [Compound I-0333] | 10 to 100
CC(=O)Nc1cc(OC(F)(F)F)ccc1-c1cc2n(n1)[C@@H](C)CN(Cc1ccc(C#N)cc1)C2=O [Compound I-0334] | < 10
CC(=O)Nc1cc(C#N)ccc1-c1cc2n(n1)[C@@H](C)CN(Cc1ccc(C#N)cc1)C2=O [Compound I-0335] | < 10
CNC(=O)Cc1cc(Cl)ccc1-c1cc2n(n1)[C@@H](C)CN(Cc1ccc(C#N)cc1)C2=O [Compound I-0336] | ≥ 1000
CC(=O)Nc1cc(Cl)cnc1-c1cc2n(n1)[C@@H](C)CN(Cc1ccc(C#N)cc1)C2=O [Compound I-0337] | 10 to 100
